Assay results as given in PubChem BioAssay (NCI).
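Cells were grown in 96-well plates and exposed to each compound for 48 hours at five concentrations; endpoints were interpolated linearly between bracketing concentrations, or set to the highest concentration if not reached. GI50 is the concentration that inhibits growth by half. TGI is the concentration that stops growth completely.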

How the values were obtained:
Test in all cases: NCI-60 cell line screen, 48 h
[1] = system: 786-0 renal
[2] = system: A498 renal
[3] = system: A549 NSCLC
[4] = system: ACHN renal
[5] = system: BT-549 breast
[6] = system: CCRF-CEM leukemia
[7] = system: DU-145 prostate
[8] = system: EKVX NSCLC
[9] = system: HCC-2998 colon
[10] = system: HCT-116 colon
[11] = system: HCT-15 colon
[12] = system: HL-60(TB) leukemia
[13] = system: HOP-62 NSCLC
[14] = system: HOP-92 NSCLC
[15] = system: HS 578T breast
[16] = system: HT29 colon
[17] = system: IGROV1 ovarian
[18] = system: KM12 colon
[19] = system: LOX IMVI melanoma
[20] = system: M14 melanoma
[21] = system: MALME-3M melanoma
[22] = system: MCF7 breast
[23] = system: MDA-MB-231 breast
[24] = system: MDA-MB-435
[25] = system: MOLT-4 leukemia
[26] = system: NCI-H226 lung
[27] = system: NCI-H23 lung
[28] = system: NCI-H460 lung
[29] = system: NCI-H522 lung
[30] = system: NCI/ADR-RES ovarian
[31] = system: OVCAR-3 ovarian
[32] = system: OVCAR-4 ovarian
[33] = system: OVCAR-5 ovarian
[34] = system: OVCAR-8 ovarian
[35] = system: PC-3 prostate
[36] = system: RXF 393 renal
[37] = system: SF-268 CNS
[38] = system: SF-295 CNS
[39] = system: SF-539 CNS
[40] = system: SK-MEL-2 melanoma
[41] = system: SK-MEL-28 melanoma
[42] = system: SK-MEL-5 melanoma
[43] = system: SK-OV-3 ovarian
[44] = system: SN12C renal
[45] = system: SNB-19 CNS
[46] = system: SNB-75 CNS
[47] = system: SR leukemia
[48] = system: SW-620 colon
[49] = system: T-47D breast
[50] = system: TK-10 renal
[51] = system: U251 CNS
[52] = system: UACC-257 melanoma
[53] = system: UACC-62 melanoma
[54] = system: UO-31 renal

COc1cc(-c2nn(-c3cccc(NC(=O)NCCNS(=O)(=O)c4ccc(Cl)cc4)c3)cc2-c2ccncc2)ccc1Cl
GI50 [1]: 1500 nM | TGI [1]: 5780 nM | GI50 [2]: 578 nM | TGI [2]: 4310 nM | GI50 [3]: 1930 nM | TGI [3]: 37400 nM | GI50 [4]: 2690 nM | TGI [4]: 11800 nM | GI50 [5]: 1230 nM | TGI [5]: 5140 nM | GI50 [6]: 419 nM | TGI [6]: > 100000 nM | GI50 [7]: 956 nM | TGI [7]: > 100000 nM | GI50 [8]: 2150 nM | TGI [8]: > 100000 nM | GI50 [9]: 1690 nM | TGI [9]: 5090 nM | GI50 [10]: 381 nM | TGI [10]: 2470 nM | GI50 [11]: 2450 nM | TGI [11]: 8550 nM | GI50 [12]: 466 nM | TGI [12]: > 100000 nM | GI50 [13]: 1080 nM | TGI [13]: 33000 nM | GI50 [14]: 886 nM | TGI [14]: 5450 nM | GI50 [15]: 351 nM | TGI [15]: 5140 nM | GI50 [16]: 370 nM | TGI [16]: 1510 nM | GI50 [17]: 1180 nM | TGI [17]: > 100000 nM | GI50 [18]: 456 nM | TGI [18]: 2410 nM | GI50 [19]: 559 nM | TGI [19]: 2460 nM | GI50 [20]: 423 nM | TGI [20]: 2420 nM | GI50 [21]: 588 nM | TGI [21]: 2870 nM | GI50 [22]: 363 nM | TGI [22]: > 100000 nM | GI50 [23]: 1510 nM | TGI [23]: 4380 nM | GI50 [24]: 207 nM | TGI [24]: 515 nM | GI50 [25]: 1030 nM | TGI [25]: > 100000 nM | GI50 [26]: 1450 nM | TGI [26]: 14300 nM | GI50 [27]: 1210 nM | TGI [27]: 8790 nM | GI50 [28]: 413 nM | TGI [28]: 3690 nM | GI50 [29]: 311 nM | TGI [29]: 1350 nM | GI50 [30]: 22700 nM | TGI [30]: > 100000 nM | GI50 [31]: 371 nM | TGI [31]: 1550 nM | GI50 [32]: 1030 nM | TGI [32]: 92000 nM | GI50 [33]: 2820 nM | TGI [33]: > 100000 nM | GI50 [34]: 1710 nM | TGI [34]: 8480 nM | GI50 [35]: 490 nM | TGI [35]: 9550 nM | GI50 [36]: 307 nM | TGI [36]: 2180 nM | GI50 [37]: 792 nM | TGI [37]: 4390 nM | GI50 [38]: 513 nM | TGI [38]: 2090 nM | GI50 [39]: 480 nM | TGI [39]: 2110 nM | GI50 [40]: 629 nM | TGI [40]: 2810 nM | GI50 [41]: 1480 nM | TGI [41]: 13200 nM | GI50 [42]: 493 nM | TGI [42]: 1830 nM | GI50 [43]: 1850 nM | TGI [43]: 17500 nM | GI50 [44]: 1190 nM | TGI [44]: 13200 nM | GI50 [45]: 1160 nM | TGI [45]: > 100000 nM | GI50 [46]: 353 nM | TGI [46]: > 100000 nM | GI50 [47]: 466 nM | TGI [47]: 3530 nM | GI50 [48]: 524 nM | TGI [48]: 30300 nM | GI50 [49]: 646 nM | TGI [49]: 18100 nM | GI50 [50]: 2810 nM | TGI [50]: 9260 nM | GI50 [51]: 494 nM | TGI [51]: 2090 nM | GI50 [52]: 541 nM | TGI [52]: 3340 nM | GI50 [53]: 499 nM | TGI [53]: 2390 nM | GI50 [54]: 2450 nM | TGI [54]: > 100000 nM
